Measured values published in patent publication US20250188030A1, “Biphenyl and Phenylpyridine Compounds” (Pfizer Inc., priority 2023, published 2025).
Read-outs that look alike come from different tables or passages of the source.

Columns and labels:
KAT2A = KAT2A (Homo sapiens (Human), UniProt Q92830); test: KAT2A acetyltransferase biochemical assay (RapidFire mass spectrometry, AcCoA to CoA)
KAT2B = KAT2B (Homo sapiens (Human), UniProt Q92831); test: KAT2B acetyltransferase biochemical assay (RapidFire mass spectrometry, AcCoA to CoA)
MM.1S cells = test: MM1.S 10 Day Proliferation Assay (CellTiter-Glo); type: cell-based, Human
How it was run: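 MM.1S cells, 500/well in ultra-low-attachment plates, were pre-incubated 16 h, then exposed to a 10-point 1:3 dilution series (top 10 μM final, 0.1% DMSO) for 10 days at 37 °C, with compound-containing medium refreshed at day 5. Viability was read by CellTiter-Glo luminescence; IC50 came from four-parameter fit.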

H3K9AC (HT1080 cells) = test: H3K9AC Sandwich ELISA Assay in HT1080 cells (KAT2A primary cell-based screening assay); design: species or system Human
How it was run: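 Acetylated H3K9 quantified by luminescent sandwich ELISA (total H3 capture, H3K9ac detection) on HCl lysates of HT1080 cells. Cells had 24 h compound exposure at 37 °C, top concentration 10 µM, 10-point 3-fold series, 0.1% DMSO; IC50 from four-parameter fitting.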

[1] = read-out: KAT2A Ki at 1 μM AcCoA, 5 μM H3 1-21 peptide, 0.5 nM KAT2A, 90-minute reaction
[2] = read-out: KAT2B Ki at 1 μM AcCoA, 1 μM AcCoA, 5 μM H3 1-21 peptide, 0.5 nM KAT2B, 90-minute reaction
[3] = Homo sapiens, HT-1080, H3K9AC sandwich ELISA
[4] = KAT2A Ki at 1 μM AcCoA, 5 μM H3 1-21 peptide, 0.5 nM KAT2A, 90-minute reaction

KAT2B, sequence (Q92831 2-832): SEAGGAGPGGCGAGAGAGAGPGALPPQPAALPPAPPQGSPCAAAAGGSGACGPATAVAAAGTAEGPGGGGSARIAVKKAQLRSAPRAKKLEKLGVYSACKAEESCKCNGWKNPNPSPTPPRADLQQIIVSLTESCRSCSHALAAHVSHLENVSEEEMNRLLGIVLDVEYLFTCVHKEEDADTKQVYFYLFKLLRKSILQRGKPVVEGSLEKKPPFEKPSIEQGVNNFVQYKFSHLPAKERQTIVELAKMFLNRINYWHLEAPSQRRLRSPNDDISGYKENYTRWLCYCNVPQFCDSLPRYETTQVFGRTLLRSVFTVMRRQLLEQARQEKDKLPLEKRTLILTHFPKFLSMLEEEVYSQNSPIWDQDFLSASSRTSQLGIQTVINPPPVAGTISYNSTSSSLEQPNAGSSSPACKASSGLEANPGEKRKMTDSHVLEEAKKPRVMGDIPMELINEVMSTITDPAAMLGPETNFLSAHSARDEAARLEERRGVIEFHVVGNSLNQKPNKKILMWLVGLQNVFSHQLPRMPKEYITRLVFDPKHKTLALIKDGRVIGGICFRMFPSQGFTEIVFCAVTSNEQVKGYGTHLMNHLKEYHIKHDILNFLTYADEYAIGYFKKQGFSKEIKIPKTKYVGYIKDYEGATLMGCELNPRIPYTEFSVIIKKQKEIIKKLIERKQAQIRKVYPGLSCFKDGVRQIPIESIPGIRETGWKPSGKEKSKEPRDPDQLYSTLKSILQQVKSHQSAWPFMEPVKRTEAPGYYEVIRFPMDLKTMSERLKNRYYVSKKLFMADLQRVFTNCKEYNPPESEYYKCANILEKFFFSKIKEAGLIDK
KAT2A, sequence (Q92830 whole entry): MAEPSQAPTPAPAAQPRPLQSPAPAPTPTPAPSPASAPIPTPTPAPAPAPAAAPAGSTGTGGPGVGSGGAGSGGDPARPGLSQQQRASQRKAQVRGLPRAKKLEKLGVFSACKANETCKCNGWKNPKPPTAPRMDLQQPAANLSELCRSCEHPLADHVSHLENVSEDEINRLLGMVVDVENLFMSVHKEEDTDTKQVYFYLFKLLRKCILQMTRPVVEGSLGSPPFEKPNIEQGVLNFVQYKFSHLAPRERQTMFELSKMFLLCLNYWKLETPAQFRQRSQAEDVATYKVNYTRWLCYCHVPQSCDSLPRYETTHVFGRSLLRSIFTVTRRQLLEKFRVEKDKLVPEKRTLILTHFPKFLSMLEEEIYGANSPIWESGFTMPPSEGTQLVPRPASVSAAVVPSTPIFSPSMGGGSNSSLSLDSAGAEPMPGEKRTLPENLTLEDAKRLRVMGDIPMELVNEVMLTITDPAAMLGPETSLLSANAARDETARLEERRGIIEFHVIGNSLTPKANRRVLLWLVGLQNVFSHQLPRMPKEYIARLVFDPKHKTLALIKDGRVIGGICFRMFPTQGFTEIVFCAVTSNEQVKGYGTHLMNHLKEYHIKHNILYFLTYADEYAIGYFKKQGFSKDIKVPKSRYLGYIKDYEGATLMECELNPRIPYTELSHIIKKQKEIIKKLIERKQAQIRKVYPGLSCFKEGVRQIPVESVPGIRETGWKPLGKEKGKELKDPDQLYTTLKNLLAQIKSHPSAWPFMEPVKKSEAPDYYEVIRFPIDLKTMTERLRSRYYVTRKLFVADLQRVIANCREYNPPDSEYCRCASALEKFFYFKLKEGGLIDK

SMILES	Ki (KAT2A; [1]) [nM]	Ki (KAT2B; [2]) [nM]	IC50 (MM.1S cells; Homo sapiens, MM1.S, 240 h) [nM]	IC50 (H3K9AC (HT1080 cells); [3]) [nM]	IC50 (MM.1S cells) [nM]	IC50 (H3K9AC (HT1080 cells); H3K9AC sandwich ELISA) [nM]	Ki (KAT2A; [4]) [nM]	Ki (KAT2B) [nM]
CN1CC(C)(C)C[C@H]1C(=O)N[C@@H]1CC[C@@H](Oc2ccc(CC(=O)NS(=O)(=O)N(C)C)cc2-c2cccc(F)c2C2CCC2)C1 [Example E3, N-{(1R,3R)-3-[(2′-cyclobutyl-5-{2-[(dimethylsulfamoyl)amino]-2-oxoethyl}-3′-fluoro[1,1′-biphenyl]-2-yl)oxy]cyclopentyl}-1,4,4-trimethyl-L-prolinamide]	0.03	0.02	3.82	0.84	–	–	–	–
CC1(C)C[C@H](C(=O)N[C@@H]2CC[C@@H](Oc3cccc(C(=O)O)c3-c3cccc(F)c3C3CCC3)C2)CN1 (atropisomer, axis not shown) [Example H9, (1ψ)-2′-cyclobutyl-6-{[(1R,3R)-3-{[(3ξ)-5,5-dimethylpyrrolidine-3-carbonyl]amino}cyclopentyl]oxy}-3′-fluoro[1,1′-biphenyl]-2-carboxylic acid]	33	115	–	90	–	–	–	–
CCc1c(F)cccc1-c1cc(C(C)(C)C(=O)NS(C)(=O)=O)ccc1O[C@@H]1CC[C@@H](NC(=O)[C@@]2(F)CNC3(CCCC3)C2)C1 (single isomer, unassigned) [Example C27]	0.16	0.53	12.8	2.62	–	–	–	–
CC(C)c1c(F)cccc1-c1cc(C(C)(C)C(=O)NS(C)(=O)=O)ccc1O[C@@H]1CC[C@@H](NC(=O)[C@@]2(F)CNC3(CCC3)C2)C1 (single isomer, unassigned) [Example C19]	0.12	0.8	–	–	66.7	5.06	–	–
CC1(C)C[C@@](F)(C(=O)N[C@@H]2CC[C@@H](Oc3ccc(C(C)(C)C(=O)NS(C)(=O)=O)cc3-c3cccc(F)c3C3CCC3)C2)CN1 (single isomer, unassigned) [Example C5]	0.17	0.18	12.6	10.2	–	–	–	–
CCS(=O)(=O)NC(=O)C(C)(C)c1ccc(O[C@@H]2CC[C@@H](NC(=O)[C@@]3(F)CNC4(CCCC4)C3)C2)c(-c2cccc(F)c2C2CCC2)c1 (single isomer, unassigned) [Example B20]	0.05	0.06	1.76	0.93	–	–	–	–
CC(C)c1ccccc1-c1cc(C(=O)O)ccc1O[C@@H]1CC[C@@H](NC(=O)[C@@H]2CC(C)(C)CN2C)C1 [Example D5, 2′-(propan-2-yl)-6-({(1R,3R)-3-[(1,4,4-trimethyl-L-prolyl)amino]cyclopentyl}oxy)[1,1′-biphenyl]-3-carboxylic acid]	12.8	58.8	–	30.4	–	–	–	–
CC(C)(C(=O)NS(C)(=O)=O)c1ccc(O[C@@H]2CC[C@@H](NC(=O)[C@@]3(F)CNC4(CCCC4)C3)C2)c(-c2cccc(F)c2C2CCC2)c1 (single isomer, unassigned) [Example C4]	0.26	0.14	–	–	5.49	1.25	–	–
CC(C)S(=O)(=O)NC(=O)Cc1ccc(O[C@@H]2CC[C@@H](NC(=O)[C@]3(F)CNC4(CCC4)C3)C2)c(-c2cccc(F)c2C2CCC2)c1 (single isomer, unassigned) [Example C40]	–	–	3.5	–	–	1.5	0.02	0.07
CC(C)S(=O)(=O)NC(=O)C(C)(C)c1ccc(O[C@@H]2CC[C@@H](NC(=O)[C@]3(F)CNC4(CCC4)C3)C2)c(-c2cccc(F)c2C2CCC2)c1 (single isomer, unassigned) [Example B4]	0.14	0.15	8.38	3.12	–	–	–	–
CCn1cc(-c2ccc(O[C@@H]3CC[C@@H](NC(=O)[C@@]4(F)CNC5(CCC5)C4)C3)c(-c3cccc(F)c3C3CCC3)c2)c(C(=O)O)n1 (single isomer, unassigned) [Example J13]	0.14	0.62	–	10.2	–	–	–	–
CN1CC(C)(C)C[C@H]1C(=O)N[C@@H]1CC[C@@H](Oc2cccc(CC(=O)O)c2-c2ccccc2C2CCC2)C1 (atropisomer, axis not shown) [Example H6, [(1ψ)-2′-cyclobutyl-6-({(1R,3R)-3-[(1,4,4-trimethyl-L-prolyl)amino]cyclopentyl}oxy)[1,1′-biphenyl]-2-yl]acetic acid]	–	63.6	679	–	–	84.2	–	–
CC1(C)C[C@](F)(C(=O)N[C@@H]2CC[C@@H](Oc3ccc(C(C)(C)C(=O)NS(C)(=O)=O)cc3-c3cccc(F)c3C3CCC3)C2)CN1 (single isomer, unassigned) [Example C6]	2.75	14.8	–	89.7	–	–	–	–
CC(C)c1c(F)cccc1-c1cc(C(C)(C)C(=O)O)ccc1O[C@@H]1CC[C@@H](NC(=O)[C@@]2(F)CNC3(CCC3)C2)C1 (single isomer, unassigned) [Example A22]	0.34	–	–	–	101	4.33	–	–
Cc1cc(NS(C)(=O)=O)n(-c2ccc(O[C@@H]3CC[C@@H](NC(=O)[C@@]4(F)CNC5(CCC5)C4)C3)c(-c3cccc(F)c3C3CCC3)c2)n1 (single isomer, unassigned) [Example L3]	0.21	–	43.4	6.9	–	–	–	–
O=C(O)c1ccc(O[C@@H]2CC[C@@H](NC(=O)[C@@]3(F)CNCC4(CCC4)C3)C2)c(-c2cccc(F)c2C2CCC2)c1 (single isomer, unassigned) [Example A34]	0.21	–	7.8	–	–	1.4	–	–
CN(C)S(=O)(=O)NC(=O)C(C)(C)c1ccc(O[C@@H]2CC[C@@H](NC(=O)[C@@]3(F)CNC4(CCC4)C3)C2)c(-c2cccc(F)c2C2CCC2)c1 [Example C2, (7S)-N-{(1R,3R)-3-[(2′-cyclobutyl-5-{1-[(dimethylsulfamoyl)amino]-2-methyl-1-oxopropan-2-yl}-3′-fluorobiphenyl-2-yl)oxy]cyclopentyl}-7-fluoro-5-azaspiro[3.4]octane-7-carboxamide]	–	–	5.37	3.56	–	–	0.05	–
CCc1c(F)cccc1-c1cc(CC(=O)NS(=O)(=O)C2(C)CC2)ccc1O[C@@H]1CC[C@@H](NC(=O)[C@@]2(F)CNCC(C)(C)C2)C1 (single isomer, unassigned) [Example C57]	0.05	–	7.6	–	–	4.1	–	–
CN1CC2(CCOCC2)C[C@H]1C(=O)N[C@@H]1CC[C@@H](Oc2ccc(C(=O)O)cc2-c2ccccc2C2CCC2)C1 (single isomer, unassigned) [Example D2]	–	–	–	30.6	–	–	70.3	46.8
CCS(=O)(=O)NC(=O)C(C)(C)c1ccc(O[C@@H]2CC[C@@H](NC(=O)[C@@]3(F)CNCC(C)(C)C3)C2)c(-c2cccc(F)c2C2CCC2)c1 (single isomer, unassigned) [Example B22]	0.09	–	2.51	2.38	–	–	–	–
Cc1cc(NS(C)(=O)=O)n(-c2ccc(O[C@@H]3CC[C@@H](NC(=O)[C@@H]4CC(C)(C)CN4C)C3)c(-c3cccc(F)c3C3CCC3)c2)n1 [Example L1, N-[(1R,3R)-3-({2′-cyclobutyl-3′-fluoro-5-[5-(methanesulfonamido)-3-methyl-1H-pyrazol-1-yl][1,1′-biphenyl]-2-yl}oxy)cyclopentyl]-1,4,4-trimethyl-L-prolinamide]	0.16	–	56	7.01	–	–	–	–
C[C@@H](C(=O)O)c1nn(C)cc1-c1ccc(O[C@@H]2CC[C@@H](NC(=O)[C@]3(F)CNC4(CCC4)C3)C2)c(-c2cccc(F)c2C2CCC2)c1 (single isomer, unassigned) [Example J4]	0.3	–	23.6	–	–	18.6	–	–
